Legend:
[1] = SSP4 fluorescence assay to determine generation of H2S2 in buffer; settings: SSP4 5 μM
Text: To further evaluate the specificity of TTS in converting H2S to H2S2, SSP4 was used to monitor the formation of H2S2 in this reaction and the results were compared with a series of controls. Details of the SSP4 experiments are provided later herein. SSP4 is a well-established fluorescent sensor for sulfane sulfurs including H2S2. See Shieh, M. et al., Shining a light on SSP4: a comprehensive analysis and biological applications for the detection of sulfane sulfurs. Redox Biol. 2022, 56, 102433. […] Without wishing to be bound by scientific theory, it is believed that thiols would compete with SSP4 to react with H2S2, thereby causing decreased signals.
SSP4 was dissolved in DMSO to obtain a 200 μM stock solution. CTAB was dissolved in ethanol to yield a 2 mM stock solution. TTS and TT were dissolved in DMSO to make 1 mM stock solutions. Na2S, Na2S2, and L-cysteine were prepared in MilliQ H2O to obtain stock solutions at 2 mM, 1 mM, and 4 mM, respectively. 50 mM PBS buffer was added to individual wells of a black polystyrene, flat-bottomed clear 96-well plate, followed by TTS (25 μM) or TT (25 μM), and Na2S (50 μM), cysteine (100 μM), or Na2S2 (25 μM). For the interference assay, TTS or TT (25 μM) were added to wells with or without Na2S (50 μM). Samples were mixed by pipetting up and down and incubated in the dark at room temperature (rt) for 30 min. Next, CTAB (50 μM) was added to all wells followed by SSP4 (5 μM), and samples were mixed by pipetting up and down. The final volume was 200 μL in each well. Samples were then incubated in the dark at room temperature for another 30 min before being measured on a Molecular Devices SpectraMax iD3 Multi-Mode Microplate Reader (emission 525 nm; excitation 485 nm; integration time […], low PMT sensitivity, attenuation 1, read height 1.00 mm).

HeLa cells = assay: Live cell imaging of H2S2 formation with SSP4; format: cell-based; settings: 30 min
Protocol: HeLa cells were seeded at ~7000 cells/well in a 96-well clear flat-bottomed BioLite plate (ThermoFisher Scientific, #130188) in DMEM/F12 (1:1) (Gibco, Invitrogen, #11330-032) medium supplemented with 10% fetal bovine serum (FBS) at 37° C., 5% CO2 overnight.
Preparation before cell treatment: Na2S and Na2S2 stocks were prepared at 10 mM in sterile 1×PBS. TTS and TT were prepared at 10 mM concentrations in DMSO. They were then diluted to 50 μM concentrations in serum-free Fluorobrite DMEM in individual Eppendorf tubes (0.5% DMSO). Na2S (final concentration=100 μM) was added to the Eppendorf tube containing Fluorobrite DMEM and TTS or TT immediately before being added to the cells. Compounds were mixed by pipetting up and down prior to cell addition.
Cell treatment: Culturing media was aspirated from all wells, and cells were washed twice with 1×PBS. Compounds were added to cells (200 μL/well) and incubated for 30 min at 37° C., 5% CO2. While cells were incubating, SSP4 treatment was prepared by first adding 5 mM CTAB in ethanol to Fluorobrite DMEM followed by 6.125 mM SSP4 in DMSO to final concentrations of 100 μM and 5 μM, respectively, in a tube. The final volume was 5 mL (0.08% DMSO). Compounds were mixed by pipetting up and down prior to cell addition. After incubation, media was aspirated, and cells were washed twice with 1×PBS. SSP4 treatment was added to all wells (100 μL/well), and cells were incubated for 30 min at 37° C., 5% CO2 for 30 min. Media was then aspirated, and cells were washed three times with 1×PBS. Fluorobrite DMEM was added to all wells before imaging on the Keyence All-in-One Fluorescence Microscope (BZ-X810) (excitation: 470/40 nm; emission: 525/50 nm).
As shown in FIGS. 4(A)-(D), HeLa cells were treated with TTS, TTS+H2S, or TT for 30 min before the fluorescent sensor SSP4 was applied to the cells to monitor the formation of H2S2. […] Na2S2 was used as the positive control in this study (FIG. 4D). Other control studies including TT+H2S, H2S only, and SSP4 only were also performed. […] FIG. 4H is a graph of fluorescence intensities of SSP4 staining. Data are mean values ±SEM calculated using ImageJ. (n=9, where three different images were obtained from each of three samples and quantified).

[2] = NMR monitoring of the oxidation of TT to TTS; format: physicochemical; settings: TT 20 mM in CD3CN/D2O (1:1) with H2O2, room temperature
Protocol: To an NMR tube, the solution of TT (0.2 mmol, final concentration is 20 mM) in CD3CN/D2O (1:1) was added, followed by adding H2O2 (10 μM, 20 μM). The NMR tube was shacked immediately and incubated at room temperature for 0 min, 30 min, 3 h, and 24 h.
(§1) The transformation from TT to TTS was clean. The progress of the reaction was monitored by UV-Vis spectra and the reaction rate constant (k2) was measured to be […]. The oxidation of TT by several other oxidants including t-BuOOH, AcOOH, and OCl^− was measured and the TT oxidation rate constants k2 are summarized in Table 1. ^aThe rate constant was estimated.

[3] = Oxidation of TT to TTS by ROS, UV-Vis (339 nm); format: physicochemical; settings: for k2 (TT oxidation rate constant): PBS pH 7.4
Protocol: TT was treated with H2O2, the most prevalent oxidant in biology. Stock solutions for hydrogen peroxide (H2O2), t-butyl hydroperoxide (^tBuOOH), peracetic acid (AcOOH), and sodium hypochlorite (NaOCl), were prepared in deionized water. H2O2 was diluted from a commercially available solution (30%). The concentration of H2O2 was determined using the absorption at 240 nm (ε=[…]). ^tBuOOH was diluted from commercially available solutions (70%). AcOOH was diluted from commercially available solutions (32%). NaOCl was diluted from commercially available solution containing 11-15% available chlorine. The concentration of HOCl was determined using the absorption at 292 nm (ε=[…]).
TT was dissolved in DMSO to afford a 10 mM stock solution. For H2O2, ^tBuOOH and AcOOH, substrate TT (10 μM) and ROS (1 mM) were mixed in PBS buffer, pH=7.4 with DMSO (1%) under room temperature. For NaClO, TT (100 μM) and NaClO (1 mM) were mixed in PBS buffer, pH=7.4 with DMSO (1%) under room temperature. The rate of production of TTS was detected by UV-Vis spectrum (λ=339 nm) based on the decrease of TT. A pseudo-first order reaction was assumed; the second-order k constant (k2) was calculated using the method described below.
as §1

## COC(=O)c1ccc(=S)sc1 [TT, methyl 2-thioxo-2H-thiopyran-5-carboxylate]
[1]; 25 μM compound + 50 μM Na2S (H2S), PBS
  SSP4 fluorescence response (H2S2 formation): No fluorescence
[1]; 25 μM compound + 100 μM Cys
  SSP4 fluorescence response (sulfane sulfur formation): No fluorescence
[1]; 25 μM compound only
  SSP4 fluorescence response (H2S2 formation): No fluorescence
HeLa cells; compound 50 μM + Na2S 100 μM
  SSP4 fluorescence in HeLa cells: Obvious fluorescence in these samples was not observed
HeLa cells; compound only
  SSP4 fluorescence in HeLa cells: did not show obvious fluorescence
[2]
  time to completion of TT to TTS oxidation (NMR): 24 h
[3]; ROS AcOOH 1 mM, TT 10 μM
  k2 (TT oxidation rate constant): 13.9 M⁻¹ s⁻¹
[3]; ROS H2O2 1 mM, TT 10 μM
  k2 (TT oxidation rate constant): 0.1 M⁻¹ s⁻¹
[3]; ROS OCl^− (NaClO 1 mM), TT 100 μM, rate constant was estimated
  k2 (TT oxidation rate constant): >1.0 × 10^3 M^−1 s^−1 a
[3]; ROS ^tBuOOH 1 mM, TT 10 μM
  k2 (TT oxidation rate constant): 0.01 M⁻¹ s⁻¹
[3]; UV-Vis, TT 10 μM, H2O2 1 mM, PBS pH 7.4, room temperature
  reaction rate constant (k2) of TT oxidation by H2O2: 0.1 M⁻¹ s⁻¹

Source: US20260265055A1, “Sulfine-Based Compounds for Generating Hydrogen Persulfide” (Brown University, priority 2023, published 2026)
